# How the values were obtained:
# [1] = biological target: Coagulation factor X (Homo sapiens, UniProt P00742); assay: Binding affinity towards human Serine protease FXa
# [2] = biological target: Prothrombin (Homo sapiens, UniProt P00734); assay: Binding affinity towards human thrombin
# [3] = biological target: Trypsin (Homo sapiens, UniProt P07477+P07478+P35030); assay: Binding affinity towards human trypsin; type: protein assay
# [4] = organism: Oryctolagus cuniculus; assay: Antithrombotic efficacy was determined in a rabbit (A-V) shunt model; type: functional
# [5] = biological target: T1, Coagulation factor X (Oryctolagus cuniculus, UniProt O19045); assay: Binding affinity towards Rabbit Coagulation factor X in a rabbit arterio-venous (A-V) shunt model
# T1 sequence (O19045 whole entry): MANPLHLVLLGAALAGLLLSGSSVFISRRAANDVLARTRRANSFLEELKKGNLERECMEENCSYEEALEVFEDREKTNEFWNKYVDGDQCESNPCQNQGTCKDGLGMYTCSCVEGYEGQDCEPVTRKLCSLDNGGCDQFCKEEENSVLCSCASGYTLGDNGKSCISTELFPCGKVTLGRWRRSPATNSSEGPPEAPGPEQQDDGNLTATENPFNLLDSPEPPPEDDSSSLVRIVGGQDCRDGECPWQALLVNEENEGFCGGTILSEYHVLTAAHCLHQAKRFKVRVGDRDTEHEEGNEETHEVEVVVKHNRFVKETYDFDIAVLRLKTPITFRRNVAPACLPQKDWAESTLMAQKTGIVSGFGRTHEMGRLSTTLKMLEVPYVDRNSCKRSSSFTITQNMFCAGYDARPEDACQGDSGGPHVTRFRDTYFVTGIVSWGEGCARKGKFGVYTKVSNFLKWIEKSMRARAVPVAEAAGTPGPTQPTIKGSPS
# Chain of Coagulation factor X (Homo sapiens, UniProt P00742) (P00742 41-179 limits assumed): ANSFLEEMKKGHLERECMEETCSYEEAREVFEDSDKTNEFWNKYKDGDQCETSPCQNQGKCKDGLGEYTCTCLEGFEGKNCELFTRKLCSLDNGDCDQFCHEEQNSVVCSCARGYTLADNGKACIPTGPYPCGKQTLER
# Chain of Coagulation factor X (Homo sapiens, UniProt P00742) (P00742 235-488 limits assumed): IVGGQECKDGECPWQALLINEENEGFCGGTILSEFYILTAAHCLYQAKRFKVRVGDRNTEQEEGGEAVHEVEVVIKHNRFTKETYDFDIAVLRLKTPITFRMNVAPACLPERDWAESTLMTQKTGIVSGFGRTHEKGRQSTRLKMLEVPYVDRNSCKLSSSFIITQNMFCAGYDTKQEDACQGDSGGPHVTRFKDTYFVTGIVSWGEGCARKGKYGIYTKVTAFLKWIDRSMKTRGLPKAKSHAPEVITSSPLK
Structure (SMILES),Ki [1] [nM],Ki [2] [nM],Ki [3] [nM],Ki [5] [nM],ID50 [4] [µM/h/kg]
N=C(N)c1cccc(-c2[nH]c(O)nc2C(=O)Nc2ccc(-c3ccccc3S(N)(=O)=O)cc2)c1.O=C(O)C(F)(F)F,2.3,6000,390,,
N=C(N)c1cccc(-c2ocnc2C(=O)Nc2ccc(-c3ccccc3S(N)(=O)=O)cc2)c1.O=C(O)C(F)(F)F,2.5,3300,261,,0.54
N=C(N)c1cccc(-n2cccc2C(=O)Nc2ccc(-c3ccccc3S(N)(=O)=O)cc2)c1,,,56,,
N=C(N)c1cccc(-c2nocc2C(=O)Nc2ccc(-c3ccccc3S(N)(=O)=O)cc2)c1.O=C(O)C(F)(F)F,,,21,,0.31
N=C(N)c1cccc(-n2cncc2C(=O)Nc2ccc(-c3ccccc3S(N)(=O)=O)cc2)c1.O=C(O)C(F)(F)F,1.1,3200,58,,
Cc1nc(C(=O)Nc2ccc(-c3ccccc3S(N)(=O)=O)cc2)c(-c2cccc(C(=N)N)c2)[nH]1.O=C(O)C(F)(F)F,6,> 21000,1100,,
N=C(N)c1cccc(-n2nccc2C(=O)Nc2ccc(-c3ccccc3S(N)(=O)=O)cc2)c1,,,15,,
N=C(N)c1cccc(-c2ncsc2C(=O)Nc2ccc(-c3ccccc3S(N)(=O)=O)cc2)c1.O=C(O)C(F)(F)F,0.82,> 6300,97,,
N=C(N)c1cccc(-c2ccccc2C(=O)Nc2ccc(-c3ccccc3S(N)(=O)=O)cc2)c1.O=C(O)C(F)(F)F,8.2,> 6300,780,,
Cc1cc(C(=O)Nc2ccc(-c3ccccc3S(N)(=O)=O)cc2)n(-c2cccc(C(=N)N)c2)n1.O=C(O)C(F)(F)F,,,,,0.023
N=C(N)c1cccc(-c2ncccc2C(=O)Nc2ccc(-c3ccccc3S(N)(=O)=O)cc2)c1.O=C(O)C(F)(F)F,1,15400,260,,

# The next lines start with results.
Ki [1] [nM],Ki [2] [nM],Ki [3] [nM],Ki [5] [nM],Structure (SMILES),ID50 [4] [µM/h/kg]
0.037,300,6.4,,N=C(N)c1cccc(-n2nnnc2C(=O)Nc2ccc(-c3ccccc3S(N)(=O)=O)cc2)c1.O=C(O)C(F)(F)F,0.13
0.06,1250,60,0.08,Cc1nc(-c2cccc(C(=N)N)c2)c(C(=O)Nc2ccc(-c3ccccc3S(N)(=O)=O)cc2)s1.O=C(O)C(F)(F)F,0.5
0.2,2640,220,,Cn1cc(C(=O)Nc2ccc(-c3ccccc3S(N)(=O)=O)cc2)c(-c2cccc(C(=N)N)c2)n1.O=C(O)C(F)(F)F,
0.33,800,26,,N=C(N)c1cccc(-n2ccnc2C(=O)Nc2ccc(-c3ccccc3S(N)(=O)=O)cc2)c1.O=C(O)C(F)(F)F,
0.3,600,27,,Cc1cn(-c2cccc(C(=N)N)c2)c(C(=O)Nc2ccc(-c3ccccc3S(N)(=O)=O)cc2)n1.O=C(O)C(F)(F)F,
0.023,300,3.4,,N=C(N)c1cccc(-n2nncc2C(=O)Nc2ccc(-c3ccccc3S(N)(=O)=O)cc2)c1.O=C(O)C(F)(F)F,
0.4,3600,190,,Cc1nc(-c2cccc(C(=N)N)c2)c(C(=O)Nc2ccc(-c3ccccc3S(N)(=O)=O)cc2)o1.O=C(O)C(F)(F)F,
